Literature values in patent US6691638B2, “Methods for gamete production in birds” (North Carolina State University, priority 2000, dated 2004).

Key:
[1] = system: quail eggs; settings: albumen suspension of BU; cited from earlier work
[2] = system: PGCs; settings: administration in rats; cited from earlier work
[3] = system: gonadal germ cells; settings: cited from earlier work
[4] = system: germ cells; settings: 100 μg BU in sesame oil; cited from earlier work
[5] = system: chick embryos; settings: injection into the yolk sac; cited from earlier work
[6] = forms a suspension; cited from earlier work
[7] = in vivo; cited from earlier work
[8] = system: PGCs; settings: cited from earlier work
[9] = 50 μg BU suspended in sesame oil, 6 day-old chick embryos
[10] = after injection of germinal crescent cells into BU-treated embryos

CS(=O)(=O)OCCCCOS(C)(=O)=O [BU, 1,4-butanediol dimethane sulfonate]
Effect on hatchability [1]: significant declines in hatchability | Effect on development of PGCs [2]: markedly impair | Increase of the rate of germline chimerism ([3]; compared to non-BU treated embryos, estimated): 3.5 fold | Effect on gonadal germ cells in chick embryos ([3]; injection of 25, 50 and 250 μg BU): significantly reduced | Sterility index [4]: ≥ 95% | Teratogenic effect [5]: multiple malformations | Solubility in aqueous solutions [6]: relatively insoluble | Half-life [7]: approximately 10 hours | Reduction of PGCs in the left gonad [8, 9]: 75% | Reduction of PGCs in the right gonad [8, 9]: 78% | PGC numbers, left gonad, % of controls [8, 10]: 72 % of controls | PGC numbers, right gonad, % of controls [8, 10]: 115 % of controls
